In article PMC9313812, “The Pseudo‐Natural Product Rhonin Targets RHOGDI” (Angewandte Chemie (International Ed. in English), 2022):

Legend:
[1] = target: T1, RHOGDI1-mediated extraction of CDC42 (Homo sapiens, UniProt P52565); experiment: Liposome sedimentation assay: displacement of prenylated GDP-bound CDC42 by GST-RHOGDI1; format: biochemical; conditions: 50 μM compound
T1 construct: made in house; host or cells: RHOGDI1: E. coli; prenylated CDC42: insect cells (TNAO38)
Experimental: Supplementary Figure S4. Compound 7a impairs RHOGDI1 function. (a) Assay setup for the liposome sedimentation assay. (b) Displacement of prenylated GDP‐bound RAC1 from synthetic liposomes by GST-RHOGDI1 in the presence or absence of 50 μM 7a was measured using liposome floatation assay. Data is representative of three independent experiments.
Liposome-containing phase represented by fluorescent colour as result of 5% fluorescent NDB-PE was analysed by Western blotting. Data are representatives of three independent […]
experiments. (c-d) Displacement of prenylated
GDP‐bound RHO GTPases (RHOA and CDC42) from synthetic liposomes by GST‐RHOGDI1 […]
liposome sedimentation assay. Data is representative of three independent experiments. P: […]
Liposome sedimentation assay
Liposomes were prepared by self-assembly of the lipids (500 μg) containing 20% (w/w) phosphatidylethanolamine, 45% (w/w) phosphatidylcholine, 20% (w/w) phosphatidylserine, 10% (w/w) cholesterol, and 5% (w/w) phosphatidylinositol 4,5-bisphosphate. […] The resulting pellet and supernatant fractions were collected and analyzed by immunoblotting. […]
The resulting samples were centrifuged at 140000 x g for 1 h at 4 °C. The upper liposome‐ containing phase (detected by fluorescent NDB‐PE) was collected and analyzed by […]

[2] = target: T2, RHOGDI1-RAC1 interaction (Homo sapiens, UniProt P52565); experiment: Fluorescence polarization: titration of TAMRA-GDP-bound RAC1 with RHOGDI1 in presence of compound; format: binding; conditions: Cheng-Prusoff equation using data from Figure S6f
T2 construct: GST; made in house; host or cells: RHOGDI1: E. coli; GerGer-RAC1: insect cells (TNAO38)
T2 sequence (P52565 1-204): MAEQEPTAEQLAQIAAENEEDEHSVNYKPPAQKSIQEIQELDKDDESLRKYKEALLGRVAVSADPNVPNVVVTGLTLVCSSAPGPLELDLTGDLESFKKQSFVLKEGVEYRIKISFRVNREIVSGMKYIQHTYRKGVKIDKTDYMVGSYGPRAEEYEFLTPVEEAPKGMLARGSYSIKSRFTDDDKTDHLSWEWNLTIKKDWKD
Experimental: cilia were stained with an antibody against acetylated tubulin. SMO was marked with an anti-SMO antibody and DAPI was used to stain the nuclei. For quantification of cilia, at least 100 cilia per condition and biological replicate were analyzed for the intensity of anti-acetylated tubulin antibody staining. The results of one representative biological replicate are shown and each data point represents the intensity value of one single cilium. Statistical significance was evaluated using an unpaired t-test with a confidence interval of 95 % (p ≤ n.s.). […]
Label-free quantification (LFQ) intensities were logarithmized (log2) and proteins, which were not three times quantified in at least one of the groups, were filtered off. […]
Fluorescence polarization
The binding of probe 10 to RHOGDI1-3 was confirmed by fluorescence polarization experiments. […] The change in fluorescence polarization was monitored at an excitation / emission wavelengths of 535 nm and 593 nm, respectively. […]
To determine the effect of 7a on the binding of RHOGDI1 to non-prenylated RAC1-GDP, fluorescence polarization measurements were performed by titrating 1 µM TAMRA-GDP-bound RAC1 with increasing concentrations of RHOGDI1 in the presence and absence of 50 µM 7a in buffer containing 30 mM Tris-HCl, pH 7.5, 150 mM NaCl, 5 mM MgCl2, 1% DMSO. […]

| Inhibition of RHOGDI1-mediated extraction of CDC42 (in words) [1] | Structure (SMILES) | Ki [2] |
| --- | --- | --- |
| inhibited | COC(=O)C1(C(CC(=O)c2ccccc2)c2ccccc2)N=C(c2ccc(Br)cc2)C2C(=O)N(C)C(=O)C21 (centres unmarked) [7a] |  |
|  | COC(=O)C1(C(CC(=O)c2cccnc2)c2ccccc2)N=C(c2ccc(Br)cc2)C2C(=O)N(C)C(=O)C21 (centres unmarked) [7l] | ~2200 nM |
